Like-named read-outs stand apart in the source and are kept apart here.

The subject of one assay is CHO cells. Description: Protein translation assay (puromycin incorporation in CHO cells, unstressed or Tg-stressed). The class given is cell-based, Chinese hamster. The note with it: Cricetulus griseus, media alone 100%; for activity at 0.1 µM: read-out: % Recovery of protein expression (100 nM test compound). The method, then:
CHO cells were maintained at 37° C. and 5% CO2 in DMEM supplemented with 10% fetal bovine serum (FBS), 2 mM L-glutamine, 100 U/ml penicillin, and 100 μg/ml streptomycin. After reaching 80% of confluence, cells were detached and seeded on 6 well plates in complete media, allowed to recover overnight and treated for 2 hours with 1 μM of the test compound (to assess protein synthesis levels in unstressed condition), or for 1 hour with 100 nM and 1 μM of the test compound and then co-treated with 300 nM Tg and 100 nM and 1 μM of the test compound (to assess the recovery of protein synthesis in a stressed condition). Cells treated with Tg alone were used as controls.
After the 2 hours treatments, media were replaced by adding 10 μg/ml puromycin (Sigma Aldrich) in complete media for 30 min. Media were removed and cells were lysed with SDS-PAGE lysis buffer. Lysates were transferred to 1.5 ml tubes and sonicated for 3 minutes and total protein amount were quantified using BCA Protein Assay Kit (Pierce). Equal amount of protein (30 μg) was loaded on SDS-PAGE gels. Proteins were transferred onto 0.2 μm PVDF membranes (BioRad) and probed with primary antibodies diluted in Tris-buffered saline supplemented with 0.1% Tween 20 and 3% bovine serum albumin.
Puromycin (12D10) antibody was used as primary antibody (Merck Millipore). A HRP-conjugated secondary antibody (Rockland) was employed to detect immune-reactive bands using enhanced chemiluminescence (ECL Western Blotting Substrate, Pierce). Quantification of protein bands was done by densitometry using ImageJ.
Percent increase of protein synthesis in unstressed cells (without Tg treatment) in the presence of media alone or certain test compounds is shown in Table 3 and FIG. 2. The percentage levels were normalized to the media alone condition, which correspond to 100% protein synthesis.
Percent recovery of protein synthesis in stressed cells (with Tg treatment) due to the test compounds at 100 nM or 1 μM is shown in FIGS. 3A and 3B, respectively, and in Table 3. The levels were normalized to the media alone and to Tg alone conditions, which correspond to 100% and 0% respectively.

A further assay has as its system ATF4. Description: ATF4 expression inhibition assay (thapsigargin-stressed HEK293T cells, western blot). The note with it: Homo sapiens, HEK-293T; for inhibition at 0.1 µM: 3 h with 100 nM thapsigargin (Tg) and 100 nM test compound; for inhibition at 0.1 µM / inhibition at 1 µM: Tg alone 0%, untreated 100%; for inhibition at 1 µM: 3 h with 100 nM thapsigargin (Tg) and 1 μM test compound; for IC50: 3 h with 100 nM Tg, test compound 1 nM to 1 μM. The class given is cell-based. The method, then: HEK293T cells were maintained at 37° C. and 5% CO2 in Dulbecco's Modified Eagle's Media (DMEM) supplemented with 10% fetal bovine serum (FBS), 2 mM L-glutamine, 100 U/ml penicillin, and 100 μg/ml streptomycin. […] Cells without treatment or cells treated with Tg alone were used as controls.
After 3 hours of treatment with Tg and the test compound, cells were lysed with SDS-PAGE lysis buffer. Lysates were transferred to 1.5 ml tubes and sonicated for 3 min, and total protein amounts were quantified using BCA Protein Assay Kit (Pierce). Equal amount of proteins were loaded on SDS-PAGE gels. Proteins were transferred onto 0.2 μm PVDF membranes (BioRad) and probed with primary antibodies diluted in Tris-buffered saline supplemented with 0.1% Tween 20 and 3% bovine serum albumin.
ATF4 (11815) antibody was used as primary antibody (Cell Signaling Technologies). A horseradish peroxidase (HRP)-conjugated secondary antibody (Rockland) was employed to detect immune-reactive bands using enhanced chemiluminescence (ECL Western Blotting Substrate, Pierce). Quantification of protein bands was done by densitometry using ImageJ.
Percentages of ATF4 inhibition after induction with Tg in the presence of 100 nM or 1 μM of certain test compounds are shown in Table 2 and FIG. 1. Percentage of ATF4 inhibition was calculated as the percent reduction normalized to Tg treatment (0% inhibition) and untreated cells (100% inhibition). Also shown in Table 2 is the calculated IC50 for the test compounds. […] Accordingly, inhibition of ATF4 expression as a result of the test compound indicates suppression of the ISR pathway.
(A western blot detects proteins with antibodies after separation by electrophoresis.)

Setting [1] is: CHO cells stressed with 300 nM Tg, Tg alone 0%.
Where [2] appears, read: CHO cells stressed with 300 nM Tg, Tg alone 0%, read-out: % Recovery of protein expression (1 μM test compound).
The mark [3] stands for this setting: unstressed CHO cells, 2 h, read-out: % Protein expression relative to untreated (1 μM test compound).

For orientation: inhibition means the percentage by which the read-out fell short of the control. High values mean a response far below the control, low ones a response near the control. For `O=C(NC1CCN(CC(O)COc2ccc(Cl)c(F)c2)CC1)c1ccc2cc(Cl)ccc2c1` (stereo not drawn) [Compound 21, 6-chloro-N-(1-(3-(4-chloro-3-fluorophenoxy)-2-hydroxypropyl)piperidin-4-yl)-2-naphthamide], the activity at 0.1 µM in the assay with CHO cells (setting [1]) worked out at 70.5%. Also, the activity at 1 µM in the assay on CHO cells (setting [2]) came to 182%. Also, in the assay with ATF4, the inhibition at 0.1 µM worked out at 54% and testing at 1 µM gave an inhibition of 78%.

The IC50 is the concentration that gives 50% inhibition. As to `O=C(N[C@H]1CC[C@H](NCC(O)COc2ccc(Cl)c(F)c2)CC1)c1cc2cc(Cl)ccc2o1` (stereo partly drawn) [Compound 147, trans-5-chloro-N-(4-((3-(4-chloro-3-fluorophenoxy)-2-hydroxypropyl)amino)cyclohexyl)benzofuran-2-carboxamide], the activity at 0.1 µM in the assay on CHO cells (setting [1]) is 75.2%. The activity at 1 µM in the assay on CHO cells (setting [2]) was 262%. Further, the activity at 1 µM in the assay with CHO cells (setting [3]) was determined as 190%. In the assay with ATF4, half-maximal inhibition (IC50) was put at 0.0331 µM, the inhibition at 0.1 µM amounted to 95% and at 1 µM the inhibition was 100%.

Take `O=C(COc1ccc(Cl)c(F)c1)N[C@H]1CC[C@H](NC(=O)c2ccc3cc(Cl)ccc3c2)CC1` [Compound 145, trans-6-chloro-N-(4-(2-(4-chloro-3-fluorophenoxy)acetamido)cyclohexyl)-2-naphthamide]: the activity at 0.1 µM in the assay with CHO cells (setting [1]) was found to be 22.6%. Further, the activity at 1 µM with CHO cells (setting [2]) was 40.6%. The activity at 1 µM with CHO cells (setting [3]) was found to be 95.4%. In the assay with ATF4, this compound gave an IC50 of 0.0171 µM, an inhibition at 0.1 µM of 97% and an inhibition at 1 µM of 97%.

Regarding `O=C(N[C@H]1CC[C@H](NC[C@@H](O)COc2ccc(Cl)c(F)c2)CC1)c1cc2cc(Cl)ccc2o1` (single isomer, unassigned) [Compound 154, (+)-trans-5-chloro-N-(4-((3-(4-chloro-3-fluorophenoxy)-2-hydroxypropyl)amino)cyclohexyl)benzofuran-2-carboxamide], the activity at 0.1 µM with CHO cells (setting [1]) turned out to be 96.3%. The activity at 1 µM with CHO cells (setting [2]) amounted to 234%. Further, the activity at 1 µM in the assay on CHO cells (setting [3]) was 188%. In the assay on ATF4, the midpoint of inhibition, the IC50, lay at 0.0137 µM; the inhibition at 0.1 µM stood at 92%; at 1 µM the inhibition was 96%.

For the compound `O=C(NC1CCN(CC(O)COc2ccc(Cl)c(F)c2)CC1)c1ccc2cc(Cl)ccc2n1` (stereo not drawn) [Compound 22, 6-chloro-N-(1-(3-(4-chloro-3-fluorophenoxy)-2-hydroxypropyl)piperidin-4-yl)quinoline-2-carboxamide], in the assay on CHO cells (setting [1]), the activity at 0.1 µM stood at 67.3%. Moreover, in the assay on CHO cells (setting [2]), the activity at 1 µM was determined as 264%. The activity at 1 µM with CHO cells (setting [3]) is 170%. Further, in the assay with ATF4, the midpoint of inhibition, the IC50, lay at 0.103 µM; the inhibition at 0.1 µM was 21%; the inhibition at 1 µM is 81%.

For `O=C(COc1ccc(Cl)cc1)N[C@H]1CC[C@H](NC(=O)C2CNc3cc(Cl)ccc3O2)CC1` (single isomer, unassigned; (-)) [Compound 157, (−)-trans-6-chloro-N-(4-(2-(4-chlorophenoxy)acetamido)cyclohexyl)-3,4-dihydro-2H-benzo[b][1,4]oxazine-2-carboxamide], the activity at 0.1 µM in the assay on CHO cells (setting [1]) amounted to 39.7%. In addition, in the assay with CHO cells (setting [2]), the activity at 1 µM worked out at 97.3%. For the same compound, the activity at 1 µM with CHO cells (setting [3]) worked out at 118%. In the assay with ATF4, this compound yielded an IC50 of 0.0238 µM, an inhibition at 0.1 µM of 96% and an inhibition at 1 µM of 100%.

As to `O=C(COc1ccc(Cl)c(F)c1)N[C@H]1CC[C@H](NC[C@@H](O)COc2ccc(Cl)c(F)c2)CC1` (single isomer, unassigned) [Compound 6, (+)-2-(4-chloro-3-fluorophenoxy)-N-(4-((3-(4-chloro-3-fluorophenoxy)-2-hydroxypropyl)amino)cyclohexyl)acetamide], in the assay on CHO cells (setting [1]), the activity at 0.1 µM came out at 60.2%. Also, the activity at 1 µM in the assay on CHO cells (setting [2]) came out at 197%. Further, the activity at 1 µM in the assay with CHO cells (setting [3]) was 195%. In the assay on ATF4, this compound gave an IC50 of 0.0828 µM, an inhibition at 0.1 µM of 52% and an inhibition at 1 µM of 83%.

Turning to `O=C(COc1ccc(Cl)c(F)c1)NC1CCN(CCCOc2ccc(Cl)c(F)c2)CC1` [Compound 28, 2-(4-chloro-3-fluorophenoxy)-N-(1-(3-(4-chloro-3-fluorophenoxy)propyl)piperidin-4-yl)acetamide], in the assay on CHO cells (setting [1]), the activity at 0.1 µM stood at 38%. The activity at 1 µM with CHO cells (setting [2]) was 170%. In the assay on CHO cells (setting [3]), the activity at 1 µM turned out to be 99.3%. In the assay with ATF4, this compound registered an IC50 of 0.0258 µM, an inhibition at 0.1 µM of 88% and an inhibition at 1 µM of 97%.

On to `O=C(COc1ccc(Cl)cc1)N[C@H]1CC[C@H](NCC(O)COc2ccc(Cl)cc2)CC1` (stereo partly drawn) [Compound 1, trans-2-(4-chlorophenoxy)-N-(4-((3-(4-chlorophenoxy)-2-hydroxypropyl)amino)cyclohexyl)acetamide], for which the activity at 0.1 µM in the assay on CHO cells (setting [1]) is 63.8%. For the same compound, in the assay with CHO cells (setting [2]), the activity at 1 µM came out at 160%. In the assay on CHO cells (setting [3]), the activity at 1 µM came to 152%. In the assay with ATF4, this compound displayed an IC50 of 0.353 µM, an inhibition at 0.1 µM of 0% and an inhibition at 1 µM of 71%.

In the case of `O=C(COc1ccc(Cl)c(F)c1)N[C@H]1CC[C@H](NC(=O)c2ccc3cc(Cl)ccc3n2)CC1` [Compound 23, trans-6-chloro-N-(4-(2-(4-chloro-3-fluorophenoxy)acetamido)cyclohexyl)quinoline-2-carboxamide], the activity at 0.1 µM in the assay on CHO cells (setting [1]) was found to be 79.2%. In addition, the activity at 1 µM with CHO cells (setting [2]) was 176%. Further, the activity at 1 µM in the assay with CHO cells (setting [3]) came out at 120%. In the assay on ATF4, half-maximal inhibition (IC50) was put at 0.0021 µM, at 0.1 µM the inhibition was 97% and the inhibition at 1 µM came out at 99%.

For `O=C(COc1ccc(Cl)c(F)c1)N[C@H]1CC[C@H](NC(=O)C2Cc3cc(Cl)ccc3O2)CC1` (stereo partly drawn) [Compound 19, trans-5-chloro-N-(4-(2-(4-chloro-3-fluorophenoxy)acetamido)cyclohexyl)-2,3-dihydrobenzofuran-2-carboxamide], in the assay on CHO cells (setting [1]), the activity at 0.1 µM was found to be 14.1%. In addition, the activity at 1 µM with CHO cells (setting [2]) worked out at 116%. In the assay with ATF4, this compound had an inhibition at 0.1 µM of 94% and an inhibition at 1 µM of 100%.

In the case of `O=C(N[C@H]1CC[C@H](NCCOc2ccc(Cl)c(F)c2)CC1)c1ccc2cc(Cl)ccc2n1` [Compound 31, trans-6-chloro-N-(4-((2-(4-chloro-3-fluorophenoxy)ethyl)amino)cyclohexyl)quinoline-2-carboxamide], in the assay with CHO cells (setting [1]), the activity at 0.1 µM came to 25%. Also, the activity at 1 µM in the assay with CHO cells (setting [2]) was determined as 288%. The activity at 1 µM in the assay with CHO cells (setting [3]) was 243%. In the assay on ATF4, this compound had an inhibition at 0.1 µM of 41% and an inhibition at 1 µM of 93%.

Regarding `O=C(COc1ccc(Cl)cc1)NC1CCN(CC(O)COc2ccc(Cl)cc2)CC1` (stereo not drawn) [Compound 5, 2-(4-chlorophenoxy)-N-(1-(3-(4-chlorophenoxy)-2-hydroxypropyl)piperidin-4-yl)acetamide], in the assay with CHO cells (setting [1]), the activity at 0.1 µM is 64.9%. Also, the activity at 1 µM in the assay on CHO cells (setting [2]) stood at 189%. Further, the activity at 1 µM with CHO cells (setting [3]) worked out at 130%. In the assay on ATF4, this compound came in with an IC50 of 0.17 µM, an inhibition at 0.1 µM of 42% and an inhibition at 1 µM of 94%.

In the case of `O=C(COc1ccc(Cl)cc1)N[C@H]1CC[C@H](N2CC(COc3ccc(Cl)cc3)OC2=O)CC1` (stereo partly drawn) [Compound 159, trans-2-(4-chlorophenoxy)-N-(4-(5-((4-chlorophenoxy)methyl)-2-oxooxazolidin-3-yl)cyclohexyl)acetamide], the activity at 0.1 µM with CHO cells (setting [1]) stood at 23.9%. The activity at 1 µM in the assay with CHO cells (setting [2]) is 79.4%. In addition, in the assay with ATF4, the IC50 was less than 0.1 µM, the inhibition at 0.1 µM stood at 52% and the inhibition at 1 µM turned out to be 84%.

Values taken from patent US11230542B2, “Inhibitors of integrated stress response pathway” (Praxis Biotech LLC, priority 2017, dated 2022).
